Tests used:
[1] = In-vivo pharmacokinetic experiment in male beagles; design: species or system dog; settings: beagle
Description: Experimental method and conditions: male beagles with weight of 8-11 kg were purchased from Jiangsu Marshall Biotechnology Co., Ltd. The to-be-tested compound was administered to 3 dogs at 0.2 mg/kg or 1.0 mg/kg (solvent: 2% DMSO+10% Kolliphor HS 15+88% (6.818% of hydroxypropyl-beta-cyclodextrin aqueous solution), 0.2 mg/mL or 1.0 mg/mL) by intravenous injection, and administered to 3 dogs at 2 mg/kg (solvent: 5% DMSO+95% (10% hydroxypropyl-beta-cyclodextrin salt aqueous solution, 0.4 mg/mL) by oral intragastric administration. Head vein blood sampling was carried out 5 min, 15 min, 30 min, 1 h, 2 h, 4 h, 8 h and 24 h after the administration, and 500 μL of each sample was collected. After collection, the samples were placed on ice, and plasma was centrifugally separated within 15 min for testing. The concentration of the medicine in the plasma was detected by liquid chromatography-tandem mass spectrometry (LC/MS/MS), and pharmacokinetic parameters were calculated with Phoenix WinNonlin software when the concentration was measured.

[2] = tested on: OVCAR-3 human ovarian adenocarcinoma cells; assay: OVCAR-3 tumor cell proliferation inhibition (CellTiter-Glo); type: cell-based; settings: 3 d culture
Description: (§1) OVCAR-3 was purchased from ATCC; article No.: HTB-161; RPMI1640 was purchased from Gibco; article No.: 11875-093; Pancreatin (including EDTA) was purchased from Gibco; article No.: 25200-072; FBS was purchased from Gibco; Article No.: 10091-148; CellTiter-Glo was purchased from Promega; article No.: G7573; Bovine insulin was purchased from absin; article No.: abs9169; DMSO was purchased from VWR AMRESCO; article No.: 0231-500ML; Staurosporine was purchased from Selleck; article No.: S1421; a cell counter was purchased from CHEMOMETEC; model: NC-200; and a microplate reader was purchased from PerkinElmer; Model: Envison.
(§2) OVCAR-3 was human ovarian adenocarcinoma cells cultured in an RPMI-1640 culture medium containing 20% FBS and 0.01 mg/mL of Bovine insulin. Cells in logarithmic phase were taken, and the cells were subjected to digesting, collecting and counting with pancreatin-EDTA, 2000 OVCAR-3 cells/well were inoculated in a 384-well cell plate, and were cultured in 5% CO2 overnight. A 1000× compound stock solution with 3.16 times of gradient concentration was prepared with DMSO, and was diluted 100 times to 10× compound stock solution with a culture medium, and 10× compound stock solution was added into each cell culture well on the next day after cell inoculation, wherein the final concentration was 1×, and the DMSO content was 0.1%. The cell group was treated with DMSO as an experimental control (control), and the cell group was treated with 5 μM of Staurosporine as a blank control (blank).

[3] = tested on: HCC70 human breast ductal cancer cells; assay: HCC70 tumor cell proliferation inhibition (CellTiter-Glo); type: cell-based; settings: 3 d culture
Description: as §1, with “HCC70” for “OVCAR-3”, “CRL-2315;” for “HTB-161;”, “article” for “Article”, “10099-141C;” for “10091-148;”, “G7573;” for “G7573; Bovine insulin was purchased from absin; article No.: abs9169;”
as §2, with “HCC70” for “OVCAR-3”, “breast ductal cancer” for “ovarian adenocarcinoma”, “10% FBS.” for “20% FBS and 0.01 mg/mL of Bovine insulin.”

[4] = male, dog, plasma, intravenous injection 1.0 mg/kg
[5] = male, dog, plasma, oral administration 2 mg/kg

| SMILES | IC50 [2] [µM] | IC50 [3] [µM] | other results |
| --- | --- | --- | --- |
| CC1(C)CC[C@H](Nc2ncc(C(F)(F)F)c(-c3c[nH]c4c(P(C)(C)=O)c(C#N)ccc34)n2)CN1 [Compound 101, reference compound] | – | – | CL ([1]; intravenous injection 1.0 mg/kg): 0.87 L/h/kg; Cmax ([1]; oral administration 2 mg/kg): 0.123 µg/mL; F(%) ([1]; oral administration 2 mg/kg): 65.8%; AUC(0-inf) [1, 4]: 1.23 µg·h/mL; half-life [1, 4]: 6.88 h; Vd ([1]; male, dog, plasma, intravenous injection 1.0 mg/kg, read-out: Vss): 7.57 L/kg; AUC(0-inf) [1, 5]: 1.59 µg·h/mL; half-life [1, 5]: 6.61 h |
| COc1cc2c(cn1)-c1ccc3c(c[nH]c3c1)-c1nc(ncc1C(F)(F)F)N[C@H]1CC[C@@H](C1)NCCCC2 [Compound Z73] | – | – | IC50 ([2]; Homo sapiens, OVCAR-3, 72 h): 1.05 µM; IC50 ([3]; Homo sapiens, HCC70, 72 h): 0.233 µM |
| CN1CCC(F)(F)CN(C)C2CC[C@@H](C2)Nc2ncc(C(F)(F)F)c(n2)-c2c[nH]c3c(P(C)(C)=O)c(ccc23)C1=O [Compound Z85, (4^1S,4^3S)-1^7-(dimethylphosphoryl)-7,7-difluoro-5,10-dimethyl-2^5-(trifluoromethyl)-1^1H-3,5,10-triaza-1(3,6)-indola-2(4,2)-pyrimidina-4(1,3)-cyclopentanacycloundecaphan-11-one] | 1.8 | 0.517 | – |
| CN1CC(F)CCNC2CCC(C2)Nc2ncc(C(F)(F)F)c(n2)-c2c[nH]c3c(P(C)(C)=O)c(ccc23)C1=O [Compound Z77, (4^1S,4^3S,8S)-17-(dimethylphosphoryl)-8-fluoro-10-methyl-2^5-(trifluoromethyl)-1′H-3,5,10-triaza-1(3,6)-indola-2(4,2)-pyrimidina-4(1,3)-cyclopentanacycloundecaphan-11-one] | 0.0118 | 0.00987 | – |
| O=c1cc2c(c[nH]1)-c1ccc3c(c[nH]c3c1)-c1nc(ncc1C(F)(F)F)N[C@H]1CC[C@@H](C1)NCCCC2 [Compound Z74] | – | – | IC50 ([2]; Homo sapiens, OVCAR-3, 72 h): 3.46 µM; IC50 ([3]; Homo sapiens, HCC70, 72 h): 1.25 µM |
| CN1CCCCN(C)[C@H]2CC[C@@H](C2)Nc2ncc(C(F)(F)F)c(n2)-c2c[nH]c3nc(ccc23)C1=O [Compound Z92, (4^1S,4^3S)-5,10-dimethyl-2^5-(trifluoromethyl)-1^1H-3,5,10-triaza-1(3,6)-pyrrolo[2,3-b]pyridina-2(4,2)-pyrimidina-4(1,3)-cyclopentanacycloundecaphan-11-one] | 0.343 | 0.107 | – |
| CN1CCOCCN[C@H]2CC[C@@H](C2)Nc2ncc(C(F)(F)F)c(n2)-c2c[nH]c3c(P(C)(C)=O)c(ccc23)C1=O [Compound Z64, (4^1S,4^3S)-1^7-(dimethylphosphoryl)-11-methyl-2^5-(trifluoromethyl)-1^1H-8-oxa-3,5,11-triaza-1(3,6)-indola-2(4,2)-pyrimidina-4(1,3)-cyclopentanacyclododecaphan-12-one] | 0.0986 | 0.0428 | – |
| CN1CC(F)(F)CCN(C)C2CCC(C2)Nc2ncc(C(F)(F)F)c(n2)-c2ccc3c(c[nH]c3n2)C1=O (stereo not shown) [Compound Z93, (4^1S,4^3S)-8,8-difluoro-5,10-dimethyl-2^5-(trifluoromethyl)-1^1H-3,5,10-triaza-1(3,6)-pyrrolo[2,3-b]pyridine-2(4,2)-pyrimidina-4(1,3)-cyclopentanacycloundecaphan-11-one] | > 10 | 5.21 | – |
| CN1CCCCN(C)[C@H]2CC[C@@H](C2)Nc2ncc(C(F)(F)F)c(n2)-c2c[nH]c3c(C#N)c(ccc23)C1=O [Compound Z84, (4^1S,4^3S)-5,10-dimethyl-11-oxo-2^5-(trifluoromethyl)-1^1H-3,5,10-triaza-1(3,6)-indola-2(4,2)-pyrimidina-4(1,3)-cyclopentanacycloundecaphane-1^7-carbonitrile] | 0.198 | 0.263 | – |

Further lines, with some results ahead:

| IC50 [2] [µM] | SMILES | IC50 [3] [µM] | other results |
| --- | --- | --- | --- |
| 0.811 | CN1CCOCCN(C)[C@H]2CC[C@@H](C2)Nc2ncc(C(F)(F)F)c(n2)-c2ccc3c(c[nH]c3n2)C1=O [Compound Z91, (4^1S,4^3S)-5,11-dimethyl-2^5-(trifluoromethyl)-1^1H-8-oxa-3,5,11-triaza-1(3,6)-pyrrolo[2,3-b]pyridina-2(4,2)-pyrimidina-4(1,3)-cyclopentanacyclododecaphan-12-one] | 0.439 | – |
| 0.0212 | CN1CC(F)(F)CCNC2CC[C@@H](C2)Nc2ncc(C(F)(F)F)c(n2)-c2c[nH]c3c(P(C)(C)=O)c(ccc23)C1=O [Compound Z66, (41 S,4^3S)-1^7-(dimethylphosphoryl)-8,8-difluoro-10-methyl-2^5-(trifluoromethyl)-1^1H-3,5,10-triaza-1(3,6)-indola-2(4,2)-pyrimidina-4(1,3)-cyclopentanacycloundecaphan-11-one] | 0.0105 | – |
| 0.135 | N#Cc1c2ccc3c(c[nH]c13)-c1nc(ncc1C(F)(F)F)N[C@H]1CC[C@@H](C1)NCCCCNC2=O [Compound Z23, (4^1S,4^3S)-11-oxo-2^5-(trifluoromethyl)-1^1H-3,5,10-triaza-1(3,6)-indola-2(4,2)-pyrimidina-4(1,3)-cyclopentanacycloundecaphane-17-carbonitrile] | 0.0666 | – |
| 0.195 | CN1CCOCCN(C)[C@H]2CC[C@@H](C2)Nc2ncc(C(F)(F)F)c(n2)-c2c[nH]c3c(P(C)(C)=O)c(ccc23)C1=O [Compound Z63, (4^1S,4^3S)-1^7-(dimethylphosphoryl)-5,11-dimethyl-2^5-(trifluoromethyl)-1^1H-8-oxa-3,5,11-triaza-1(3,6)-indola-2(4,2)-pyrimidina-4(1,3)-cyclopentanacyclododecaphan-12-one] | 0.134 | – |
| > 10 | CN1CCC(F)CN(C)C2CC[C@@H](C2)Nc2ncc(C(F)(F)F)c(n2)-c2c[nH]c3c(P(C)(C)=O)c(ccc23)C1=O (stereo partly shown) [Compound Z90, (4^1S)-1^7-(dimethylphosphoryl)-7-fluoro-5,10-dimethyl-2^5-(trifluoromethyl)-1^1H-3,5,10-triaza-1(3,6)-indola-2(4,2)-pyrimidina-4(1,3)-cyclopentanacycloundecaphan-11-one] | > 10 | – |

Source: US20250145632A1, “Pyrimidine Heterocyclic Compound, Preparation Method Thereof and use Thereof in Medicine” (INSILICO MEDICINE IP LIMITED, priority 2021, published 2025)
